Some results are limits rather than exact numbers.

In assay [1] the target is human JAK1 (a.a. 837-1142) (Homo sapiens, UniProt P23458). As to the kind of experiment: In vitro JAK kinase assay (HTRF), JAK1. It counts as biochemical. The settings on record: 1 mM ATP. A general note: TR-FRET usually uses a lanthanide donor and a delayed reading to cut background.
Protocol: (§1) The catalytic activity of JAK1, JAK2, or JAK3 was assayed by measuring the phosphorylation of a biotinylated peptide. The phosphorylated peptide was detected by homogenous time resolved fluorescence (HTRF). […] Reactions are carried out at room temperature for 1 hour and then stopped with 20 μL 45 mM EDTA, 300 nM SA-APC, 6 nM Eu-Py20 in assay buffer (Perkin Elmer, Boston, Mass.). Binding to the Europium labeled antibody takes place for 40 minutes and HTRF signal was measured on a Fusion plate reader (Perkin Elmer, Boston, Mass.).
For assay [2], the target named is human JAK2 (a.a. 828-1132) (Homo sapiens (Human), UniProt O60674). As to the kind of experiment: In vitro JAK kinase assay (HTRF), JAK2 versus JAK1. It counts as biochemical. The settings on record: IC50 ratio, 1 mM ATP.
Protocol: as §1
The test system of assay [3] is Human multiple myeloma cell lines KMS12BM, OPM2, MM1.R, MM1.S and KMS11. Description: Cell Titer Glo viability of multiple myeloma cell lines. The class given is cell-based. The settings on record: 72 hours, compared to DMSO treated controls, all five cell lines. As for the experimental part: Human multiple myeloma cell lines KMS12BM, OPM2 (DSMZ), MM1.R, MM1.S (ATCC) and KMS11 (JCRB) were seeded into white 96 well plates (Greiner Bio One) at 10^4 cells in 100 μL media. Combinations of dexamethasone (Sigma), lenalidomide (Chemscene), itacitinib, or DMSO control were then added. Doses were selected based on pilot studies designed to find sensitivities of each cell line to these agents. Each dose combination was performed in triplicate. After 72 hours, Cell Titer Glo (Promega) assays were performed as per manufacturer protocol to assess cell viability.
Statistical analyses were performed using Prism Graphpad software. P values were calculated from unpaired t tests—*p<0.05; **p<0.01; ****p<0.0001).
Background: ATP-based viability assays read luminescence as a measure of living cells.

Sequence of human JAK2 (a.a. 828-1132) (O60674 828-1132): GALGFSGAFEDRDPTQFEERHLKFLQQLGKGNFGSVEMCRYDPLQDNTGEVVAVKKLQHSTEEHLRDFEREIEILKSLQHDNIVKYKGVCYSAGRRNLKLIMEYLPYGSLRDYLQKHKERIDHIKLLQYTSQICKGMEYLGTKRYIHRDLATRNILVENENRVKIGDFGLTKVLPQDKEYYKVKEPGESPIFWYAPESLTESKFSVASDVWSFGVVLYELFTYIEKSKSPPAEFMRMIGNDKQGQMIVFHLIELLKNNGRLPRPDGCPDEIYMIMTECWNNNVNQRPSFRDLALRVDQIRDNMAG

On to `N#CCC1(n2cc(-c3ncnc4[nH]ccc34)cn2)CN(C2CCN(C(=O)c3ccnc(C(F)(F)F)c3F)CC2)C1` [Compound 1, {1-{1-[3-Fluoro-2-(trifluoromethyl)isonicotinoyl]piperidin-4-yl}-3-[4-(7H-pyrrolo[2,3-d]pyrimidin-4-yl)-1H-pyrazol-1-yl]azetidin-3-yl}acetonitrile], for which, in assay [1], the IC50 (in general, the concentration that gives 50% inhibition) is less than 10 nM. In addition, the JAK2/JAK1 in assay [2] is recorded as more than 10. Also, the cell viability result in assay [3] was “no change in viability”.

Values taken from US11324749B2, “Combination therapy for treatment of hematological diseases” (Incyte Corporation, priority 2018, dated 2022).
